{"source": "patent US20050069517A1", "about": "“Hair conditioning compositions” (priority 2003, published 2005)", "experiment": "Hair penetration by TOF-SIMS imaging of cross sections of treated hair fibers", "type": "physicochemical, human", "details": "bleached dark brown European hair; agent massaged in, 24 hours at approximately 32° C., rinsed 1 minute, air-dried; positive-ion TOF-SIMS images", "method": "What is meant by “penetrate” is that the hair conditioning agent is deposited into a region of the hair following application of the conditioning agent to the hair for twenty-four hours. Such analysis of hair penetration is set forth below in Example 8.\nVarious hair conditioning agents were tested for their ability to penetrate into human hair. Secondary ion mass spectrometry (SIMS) in combination with a time of flight (TOF) mass spectrometer was used to determine hair penetration. Time-Of-Flight Secondary Ion Mass Spectrometry (TOF-SIMS) makes use of the secondary ion mass spectra (of atomic species or low molecular weight fragments), which are formed when the sample surface (e.g., surface of hair fiber cross sections) is bombarded with a positively charged gallium ion beam. The positive and negative ion mass spectra of the sample were obtained by the time-of-flight method. See, e.g., Ruetsch, et al., J. Cosmet. Sci., 52, 169-184 (2001). The Gallium gun, which emits a pulsed primary ion beam (accelerating voltage of 25 kV), was used in the study.\nThe protocol was as follows. Dark brown European hair obtained from DeMeo Brothers, New York, N.Y. was bleached for 30 minutes with alkaline 6% hydrogen peroxide (adjusted to pH 10.2 with ammonium hydroxide). […]", "data": [{"smiles": "CCCCCCCCCCCCCCCC(=O)N[C@@H](CO)C(=O)OCCCCCCCCCCCCCC", "note": "[Palmitoyl Myristyl Serinate]", "values": [{"measurement": "penetration of hair conditioning agent into hair fiber cross section", "value": "not detected in the cross section of treated hair"}]}]}
